Measured values from US8981111B2 (priority 2008, dated 2015).

Assay: log P (HPLC/MS data of the preparation examples)
Conditions: for log p: linear gradient 10% to 95% acetonitrile; for chromatographic logP: HCOOH (formic acid)
[1] = method [b]: LC-MS at pH 2.7, 0.1% formic acid in water / acetonitrile
[2] = LC-MS, method [b]: pH 2.7 with 0.1% formic acid in water and acetonitrile
[3] = HPLC (LC-MS) method [b]: pH 2.7, 0.1% formic acid in water and acetonitrile, EEC directive 79/831 Annex V.A8

SMILES	log p [1]	log p [2]	other results
Cn1ncnc1C(=NOCc1cccc(NC(=O)Cc2cc(F)cc(F)c2)n1)c1ccccc1 [Example 241]	3.33^[b]		
Cn1ccnc1C(=NOCc1cccc(NC(=O)Cc2ccccc2)n1)c1cccs1 [Example 414]		2.05^[b]	
Cn1cncc1C(=NOCc1cccc(N)n1)c1ccccc1 (single isomer, unassigned) [Example 97]		0.25^[b]	
CCCCCCCCC(=O)Nc1cccc(CON=C(c2ccc(OC)c(Br)c2)c2ncc(C(F)(F)F)cc2Cl)n1 [Example 366]		6.65^[b]	
CCCCCC(=O)Nc1cccc(CON=C(c2ncc(C(F)(F)F)cc2Cl)c2ncnn2C)n1 [Example 468]			log p [3]: 3.85^[b]
CCCCCOC(=O)Nc1cccc(CON=C(c2ccc(OC)c(Br)c2)c2ncc(C(F)(F)F)cc2Cl)n1 [Example 363]		6.13^[b]	
Cn1ncnc1C(=NOCc1cccc(NC(=O)Cc2cccs2)n1)c1ccccc1 [Example 311]		2.98^[b]	
CCCCOC(=O)NCc1cccc(CON=C(c2ccccc2)c2ncnn2C)n1 [Example 141]	2.84^[b]		
Cc1nnsc1C(=NOCc1cccc(NC(=O)CCc2ccccc2)n1)c1ccccc1 [Example 220]	4.31^[b]		
Cn1ncnc1C(=NOCc1nccc(NC(=O)Cc2ccccc2)n1)c1ncc(C(F)(F)F)cc1Cl [Example 476]			log p [3]: 3.13^[b]
CC(C)CC(=O)Nc1ccnc(CON=C(c2ccccc2)c2cncn2C)n1 [Example 112]		1.99^[b]	
Cn1ncnc1C(=NOCc1cccc(NC(=O)OCCCCCl)n1)c1ccccc1 [Example 92]		3.39^[b]	
Cc1cc(C(F)(F)F)nn1CC(=O)Nc1cccc(CON=C(c2ccccc2)c2nccn2C)n1 [Example 279]		2.61^[b]	
Cc1nc(C(=NOCc2cccc(NC(=O)Cc3ccccc3)n2)c2ccccc2)cs1 (single isomer, unassigned) [Example 191]	3.87^[b]		
Cn1ncnc1C(=NOCc1cccc(CNC(=O)Cc2ccccc2)n1)c1ccccc1 [Example 138]	2.44^[b]		
Cc1ncoc1C(=NOCc1csc(N)n1)c1ccccc1 (single isomer, unassigned) [Example 350]		1.3^[b]	
Cc1ccc(C(=NOCc2cccc(N3C(=O)c4ccccc4C3=O)n2)c2ncnn2C)cc1 [Example 10]		2.92^[b]	
Cn1ncnc1C(=NOCc1cccc(NC(=O)Cc2ccc(F)cc2)n1)c1ccccc1 [Example 294]		3.15^[b]	
Cc1nnsc1C(=NOCc1cccc(NC(=O)CCC2CCCC2)n1)c1ccccc1 [Example 221]	5^[b]		
Cc1ncc(C(=NO)c2ccccc2)n1C [1-(1,2-dimethyl-1H-imidazol-5-yl)-N-hydroxy-1-phenylmethanimine]			chromatographic logP: 0.43
Cn1ccnc1C(=NOCc1cccc(NC(=O)C2CCCCO2)n1)c1cccc(F)c1 (stereo not drawn) [Example 340]		2.17^[b]	
CCC(C)COC(=O)Nc1cccc(CON=C(c2ccccc2)c2nccn2C)n1 (stereo not drawn) [Example 324]		2.52^[b]	
Cc1nnsc1C(=NOCc1cccc(N)n1)c1ccccc1 [Example 215]	1.63^[b]		
Cn1c(C(=NOCc2cccc(N3C(=O)c4ccccc4C3=O)n2)c2ccccc2)nnc1C(F)(F)F [Example 192]	3.31^[b]		
COc1ccc(C(=NOCc2cccc(NC(=O)c3ccccc3)n2)c2ncc(C(F)(F)F)cc2Cl)cc1Br [Example 364]		5.23^[b]	
Cn1ncnc1C(=NOCc1cccc(NC(=O)CSc2ccccc2)n1)c1ccccc1 [Example 250]	3.33^[b]		
Cn1cncc1C(=NOCc1cccc(N)n1)c1ccsc1 [Example 493, 6-[({[(1-methyl-1H-imidazol-5-yl)(3-thienyl)methylene]amino}oxy)methyl]pyridin-2-amine]			chromatographic logP: 0.39
CCCCS(=O)(=O)Nc1cccc(CON=C(c2ccc(C)cc2)c2ncnn2C)n1 [Example 74]		3.04^[b]	
CCCCCOC(=O)Nc1nc(CON=C(c2ccccc2)c2cnnn2C)cs1 [Example 84]		3.76^[b]	
Cn1nncc1C(=NOCc1csc(NC(=O)C(C)(C)C)n1)c1ccccc1 [Example 83]		3.06^[b]	
